Laboratory results published in patent US20230257372A1 (CHONG KUN DANG PHARMACEUTICAL CORP., priority 2020, published 2023).

Tests used:
[1] = biological target: T1, human recombinant HDAC1 (Homo sapiens, UniProt Q13547); experiment: HDAC1 enzyme activity inhibition (HDAC Fluorimetric Drug Discovery Kit); assay type: biochemical; details: human recombinant HDAC1; IC50 calculated with GraphPad Prism; read-out: HDAC1
T1 construct: purchased Enzo Life Science, Inc. BML-SE456
How it was run: (§1)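 Fluorimetric deacetylase read-out: after 30 min with Developer II following a 60 min, 30° C reaction of recombinant enzyme ([…]) with 10 μM substrate, across five-fold serial compound dilutions.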

[2] = biological target: T2, human recombinant HDAC6 (Homo sapiens, UniProt Q9UBN7); experiment: HDAC6 enzyme activity inhibition (HDAC Fluorimetric Drug Discovery Kit); assay type: biochemical; details: for HDAC6 selectivity (fold): HDAC1 IC50 / HDAC6 IC50; for IC50: human recombinant HDAC6, IC50 calculated with GraphPad Prism
T2 construct: purchased Calbiochem Inc. 382180
T2 sequence (Q9UBN7 1-1215): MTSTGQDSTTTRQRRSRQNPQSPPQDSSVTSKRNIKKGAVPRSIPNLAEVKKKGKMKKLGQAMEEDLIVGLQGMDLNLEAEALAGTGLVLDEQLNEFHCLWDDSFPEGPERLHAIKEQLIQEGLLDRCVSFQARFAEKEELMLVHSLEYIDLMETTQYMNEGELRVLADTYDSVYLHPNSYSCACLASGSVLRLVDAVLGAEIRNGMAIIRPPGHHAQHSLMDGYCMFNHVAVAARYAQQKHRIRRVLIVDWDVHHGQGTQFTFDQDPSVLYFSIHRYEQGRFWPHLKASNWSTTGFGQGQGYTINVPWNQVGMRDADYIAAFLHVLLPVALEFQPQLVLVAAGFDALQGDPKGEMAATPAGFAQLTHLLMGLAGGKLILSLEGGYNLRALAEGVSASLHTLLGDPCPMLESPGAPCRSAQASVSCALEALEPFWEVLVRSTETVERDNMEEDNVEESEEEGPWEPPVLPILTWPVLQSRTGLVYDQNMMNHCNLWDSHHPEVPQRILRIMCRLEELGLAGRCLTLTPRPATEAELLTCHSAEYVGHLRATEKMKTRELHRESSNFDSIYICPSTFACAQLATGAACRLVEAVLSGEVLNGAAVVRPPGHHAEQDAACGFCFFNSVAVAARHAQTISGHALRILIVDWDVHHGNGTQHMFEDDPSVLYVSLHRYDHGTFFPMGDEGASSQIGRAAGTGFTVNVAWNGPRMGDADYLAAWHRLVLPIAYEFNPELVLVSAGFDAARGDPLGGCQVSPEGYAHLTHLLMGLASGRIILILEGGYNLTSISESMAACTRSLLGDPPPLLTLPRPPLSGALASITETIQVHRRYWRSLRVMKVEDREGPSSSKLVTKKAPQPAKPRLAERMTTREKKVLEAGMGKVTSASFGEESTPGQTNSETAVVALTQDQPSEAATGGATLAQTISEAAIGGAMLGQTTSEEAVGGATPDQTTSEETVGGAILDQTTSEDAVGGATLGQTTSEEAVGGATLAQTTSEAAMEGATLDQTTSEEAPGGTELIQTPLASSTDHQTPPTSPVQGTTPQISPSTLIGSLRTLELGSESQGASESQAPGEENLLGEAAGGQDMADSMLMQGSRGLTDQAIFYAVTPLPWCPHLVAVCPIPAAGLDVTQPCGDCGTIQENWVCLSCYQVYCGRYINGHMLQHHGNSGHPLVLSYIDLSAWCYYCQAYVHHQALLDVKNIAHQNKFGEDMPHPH
How it was run: as §1

[3] = tested on: hippocampal neurons from a Sprague-Dawley (SD) rat fetus; experiment: Effect of HDAC6-specific inhibitor on axonal transport of mitochondria in amyloid-beta treated neurons; assay type: cell-based; details: transport velocity of mitochondria in neuronal axon after normalization; vehicle = 100%, amyloid beta treatment group = 0%; compound treatment for three hours
How it was run: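 Rat E17-18 hippocampal neurons exposed to amyloid-beta fragments […]; after 24 h (day 8 in vitro) compound added for 3 h, mitochondria stained with MitoTracker Red CMXRos. Confocal imaging every 1 s for 1 min gave per-mitochondrion velocity, normalized vehicle = 100%, amyloid-beta = 0%.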

T1 sequence (Q13547 whole entry): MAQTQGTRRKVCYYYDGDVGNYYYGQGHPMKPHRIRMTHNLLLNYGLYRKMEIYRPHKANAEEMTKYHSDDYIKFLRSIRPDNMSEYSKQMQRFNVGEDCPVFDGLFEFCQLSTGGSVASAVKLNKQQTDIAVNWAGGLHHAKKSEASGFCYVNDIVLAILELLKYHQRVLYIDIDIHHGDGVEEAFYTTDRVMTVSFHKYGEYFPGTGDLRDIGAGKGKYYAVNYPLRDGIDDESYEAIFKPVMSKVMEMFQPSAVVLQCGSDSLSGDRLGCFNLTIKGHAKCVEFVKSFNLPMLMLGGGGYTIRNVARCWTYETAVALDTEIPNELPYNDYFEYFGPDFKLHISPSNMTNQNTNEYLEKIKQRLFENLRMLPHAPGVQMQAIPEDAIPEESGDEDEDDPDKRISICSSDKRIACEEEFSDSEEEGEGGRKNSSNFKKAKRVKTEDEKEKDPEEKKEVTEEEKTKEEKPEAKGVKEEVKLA

Q: For FC(F)c1nnc(-c2ccc(Cn3cc(-c4ccc5cc[nH]c5c4)nn3)cc2)o1 [Compound 4076, 2-(4-((4-(1H-indol-6-yl)-1H-1,2,3-triazol-1-yl)methyl)phenyl)-5-(difluoromethyl)-1,3,4-oxadiazole], which IC50 [1] is on record?
A: > 50 µM

Q: What about the “HDAC6 selectivity (fold)” value [2] of the same compound?
A: 739 fold

Q: What about the IC50 [2] of the same compound?
A: 0.0676 µM

Q: And the “Velocity distribution (%)” value [3]?
A: *** (***, >100%)

Q: With Fc1cc(-c2nnc(C(F)F)o2)ccc1Cn1cc(-c2cccc3[nH]ccc23)nn1 [Compound 4079, 2-(4-((4-(1H-indol-4-yl)-1H-1,2,3-triazol-1-yl)methyl)-3-fluorophenyl)-5-(difluoromethyl)-1,3,4-oxadiazole] as the compound, how does the IC50 [1] read?
A: > 50 µM

Q: And the “HDAC6 selectivity (fold)” value [2]?
A: 1992 fold

Q: And the IC50 [2]?
A: 0.0251 µM

Q: And the “Velocity distribution (%)” value [3]?
A: ** (**, 50%˜100%)

Q: How did the IC50 [1] turn out when FC(F)c1nnc(-c2ccc(Cn3cc(-c4ccc5[nH]ccc5c4)nn3)cc2)o1 [Compound 4080, 2-(4-((4-(1H-indol-5-yl)-1H-1,2,3-triazol-1-yl)methyl)phenyl)-5-(difluoromethyl)-1,3,4-oxadiazole] was run?
A: > 50 µM

Q: And the “HDAC6 selectivity (fold)” value [2]?
A: 2145 fold

Q: And the IC50 [2]?
A: 0.0233 µM

Q: And the “Velocity distribution (%)” value [3]?
A: *** (***, >100%)

Q: CN1CCN(c2ccc(-c3cn(Cc4ccc(-c5nnc(C(F)F)o5)cn4)nn3)cc2)CC1 [Compound 4107, 2-(difluoromethyl)-5-(6-((4-(4-(4-methylpiperazin-1-yl)phenyl)-1H-1,2,3-triazol-1-yl)methyl)pyridin-3-yl)-1,3,4-oxadiazole] was tested. Which IC50 [1] did it give?
A: > 50 µM

Q: What about the “HDAC6 selectivity (fold)” value [2] of the same compound?
A: 1256 fold

Q: And the IC50 [2]?
A: 0.0398 µM

Q: What about the “Velocity distribution (%)” value [3] of the same compound?
A: ** (**, 50%˜100%)

Q: How did the IC50 [1] turn out when FC(F)c1nnc(-c2ccc(Cn3cc(-c4ccc5c(CN6CCCC6)c[nH]c5c4)nn3)cc2)o1 [Compound 4108, 2-(difluoromethyl)-5-(4-((4-(3-(pyrrolidin-1-ylmethyl)-1H-indol-6-yl)-1H-1,2,3-triazol-1-yl)methyl)phenyl)-1,3,4-oxadiazole] was run?
A: > 50 µM

Q: What about the “HDAC6 selectivity (fold)” value [2] of the same compound?
A: 5882 fold

Q: What about the IC50 [2] of the same compound?
A: 0.0085 µM

Q: What about the “Velocity distribution (%)” value [3] of the same compound?
A: *** (***, >100%)

Q: With Fc1cc(-c2nnc(C(F)F)o2)ccc1Cn1cc(-c2ccc3c(CN4CCCC4)c[nH]c3c2)nn1 [Compound 4109, 2-(difluoromethyl)-5-(3-fluoro-4-((4-(3-(pyrrolidin-1-ylmethyl)-1H-indol-6-yl)-1H-1,2,3-triazol-1-yl)methyl)phenyl)-1,3,4-oxadiazole] as the compound, how does the IC50 [1] read?
A: > 50 µM

Q: What about the “HDAC6 selectivity (fold)” value [2] of the same compound?
A: 3649 fold

Q: What about the IC50 [2] of the same compound?
A: 0.0137 µM

Q: And the “Velocity distribution (%)” value [3]?
A: *** (***, >100%)

Q: Which IC50 [1] does the source give for CC1CCN(Cc2c[nH]c3cc(-c4cn(Cc5ccc(-c6nnc(C(F)F)o6)cc5F)nn4)ccc23)CC1 [Compound 4110, 2-(difluoromethyl)-5-(3-fluoro-4-((4-(3-((4-methylpiperidin-1-yl)methyl)-1H-indol-6-yl)-1H-1,2,3-triazol-1-yl)methyl)phenyl)-1,3,4-oxadiazole] here?
A: > 50 µM

Q: And the “HDAC6 selectivity (fold)” value [2]?
A: 3030 fold

Q: What about the IC50 [2] of the same compound?
A: 0.0165 µM

Q: And the “Velocity distribution (%)” value [3]?
A: ** (**, 50%˜100%)

Q: Which results are given for CC1CCN(Cc2c[nH]c3cc(-c4cn(Cc5ccc(-c6nnc(C(F)F)o6)cn5)nn4)ccc23)CC1 [Compound 4111, 2-(difluoromethyl)-5-(6-((4-(3-((4-methylpiperidin-1-yl)methyl)-1H-indol-6-yl)-1H-1,2,3-triazol-1-yl)methyl)pyridin-3-yl)-1,3,4-oxadiazole]?
A: IC50 [1]: > 50 µM; HDAC6 selectivity (fold) [2]: 4587 fold; IC50 [2]: 0.0109 µM; Velocity distribution (%) [3]: ** (**, 50%˜100%)

Q: Which results are given for Fc1cc(-c2nnc(C(F)F)o2)ccc1Cn1cc(-c2ccc3c(CN4CCOCC4)c[nH]c3c2)nn1 [Compound 4112]?
A: IC50 [1]: > 50 µM; HDAC6 selectivity (fold) [2]: 3125 fold; IC50 [2]: 0.016 µM; Velocity distribution (%) [3]: *** (***, >100%)

Q: Which IC50 [1] does the source give for FC(F)c1nnc(-c2ccc(Cn3cc(-c4ccc5c(CN6CCOCC6)c[nH]c5c4)nn3)cc2)o1 [Compound 4134, 4-((6-(1-(4-(5-(difluoromethyl)-1,3,4-oxadiazol-2-yl)benzyl)-1H-1,2,3-triazol-4-yl)-1H-indol-3-yl)methyl)morpholine] here?
A: > 50 µM

Q: And the “HDAC6 selectivity (fold)” value [2]?
A: 3030 fold

Q: And the IC50 [2]?
A: 0.0165 µM

Q: What about the “Velocity distribution (%)” value [3] of the same compound?
A: ** (**, 50%˜100%)

Q: What does the source list for Fc1cc(-c2nnc(C(F)F)o2)ccc1Cn1cc(-c2ccc3[nH]ccc3c2)nn1 [Compound 4135, 2-(4-((4-(1H-indol-5-yl)-1H-1,2,3-triazol-1-yl)methyl)-3-fluorophenyl)-5-(difluoromethyl)-1,3,4-oxadiazole]?
A: IC50 [1]: > 50 µM; HDAC6 selectivity (fold) [2]: 2941 fold; IC50 [2]: 0.0167 µM; Velocity distribution (%) [3]: ** (**, 50%˜100%)

Q: What does the source list for CCn1ccc2ccc(-c3cn(Cc4ccc(-c5nnc(C(F)F)o5)cn4)nn3)cc21 [Compound 4136, 2-(difluoromethyl)-5-(6-((4-(1-ethyl-1H-indol-6-yl)-1H-1,2,3-triazol-1-yl)methyl)pyridin-3-yl)-1,3,4-oxadiazole]?
A: IC50 [1]: > 50 µM; HDAC6 selectivity (fold) [2]: 2873 fold; IC50 [2]: 0.0174 µM; Velocity distribution (%) [3]: ** (**, 50%˜100%)

Q: How did the IC50 [1] turn out when FC(F)c1nnc(-c2ccc(Cn3cc(-c4cncc(Br)c4)nn3)nc2)o1 [Compound 4182, 2-(6-((4-(5-bromopyridin-3-yl)-1H-1,2,3-triazol-1-yl)methyl)pyridin-3-yl)-5-(difluoromethyl)-1,3,4-oxadiazole] was run?
A: > 50 µM

Q: And the “HDAC6 selectivity (fold)” value [2]?
A: 2252 fold

Q: What about the IC50 [2] of the same compound?
A: 0.0222 µM

Q: What about the “Velocity distribution (%)” value [3] of the same compound?
A: ** (**, 50%˜100%)

Q: For Fc1cc(-c2cn(Cc3ccc(-c4nnc(C(F)F)o4)cn3)nn2)ccn1 [Compound 4185, 2-(difluoromethyl)-5-(6-((4-(2-fluoropyridin-4-yl)-1H-1,2,3-triazol-1-yl)methyl)pyridin-3-yl)-1,3,4-oxadiazole], which IC50 [1] is on record?
A: > 50 µM

Q: And the “HDAC6 selectivity (fold)” value [2]?
A: 729 fold

Q: What about the IC50 [2] of the same compound?
A: 0.0685 µM

Q: What about the “Velocity distribution (%)” value [3] of the same compound?
A: *** (***, >100%)

Q: What does the source list for FC(F)c1nnc(-c2ccc(Cn3cc(-c4ccc5[nH]cc(CN6CCOCC6)c5c4)nn3)nc2)o1 [Compound 4187, 4-((5-(1-((5-(5-(difluoromethyl)-1,3,4-oxadiazol-2-yl)pyridin-2-yl)methyl)-1H-1,2,3-triazol-4-yl)-1H-indol-3-yl)methyl)morpholine]?
A: IC50 [1]: > 50 µM; HDAC6 selectivity (fold) [2]: 5617 fold; IC50 [2]: 0.0089 µM; Velocity distribution (%) [3]: * (*, 0%˜50%)

Q: Which IC50 [1] does the source give for FC(F)c1nnc(-c2ccc(Cn3cc(-c4ccc5cc[nH]c5c4)cn3)nc2)o1 [Compound 4208] here?
A: > 50 µM

Q: What about the “HDAC6 selectivity (fold)” value [2] of the same compound?
A: 1479 fold

Q: And the IC50 [2]?
A: 0.0338 µM

Q: What about the “Velocity distribution (%)” value [3] of the same compound?
A: ** (**, 50%˜100%)

Q: How did the IC50 [1] turn out when CC(C)N1CCc2ccc(-c3cn(Cc4ccc(-c5nnc(C(F)F)o5)cn4)nn3)cc2C1 [Compound 4210, 2-(difluoromethyl)-5-(6-((4-(2-isopropyl-1,2,3,4-tetrahydroisoquinolin-7-yl)-1H-1,2,3-triazol-1-yl)methyl)pyridin-3-yl)-1,3,4-oxadiazole] was run?
A: > 50 µM

Q: What about the “HDAC6 selectivity (fold)” value [2] of the same compound?
A: 963 fold

Q: What about the IC50 [2] of the same compound?
A: 0.0519 µM

Q: And the “Velocity distribution (%)” value [3]?
A: * (*, 0%˜50%)

Q: For FC(F)c1nnc(-c2ccc(Cn3nnc(-c4cccs4)n3)nc2)o1 [Compound 4232, 2-(difluoromethyl)-5-(6-((5-(thiophen-2-yl)-2H-tetrazol-2-yl)methyl)pyridin-3-yl)-1,3,4-oxadiazole], which IC50 [1] is on record?
A: > 50 µM

Q: And the “HDAC6 selectivity (fold)” value [2]?
A: 2232 fold

Q: And the IC50 [2]?
A: 0.0224 µM

Q: What about the “Velocity distribution (%)” value [3] of the same compound?
A: ** (**, 50%˜100%)
